This test has as its target T1, human PAD4 (Homo sapiens, UniProt Q9UM07).
T1 construct: human PAD4 (NM_012387), A2-P663, was PCR amplified; His-SUMO (N, cleaved yes); made in house; host or cells: E. coli BL21(DE3)
The test is described as follows: In vitro PAD4 BAEE biochemical assay. Particulars: BAEE substrate 3 mM, 5 nM PAD4, 2 mM calcium chloride; geometric mean of multiple experiments. In short, it runs like this: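 Recombinant human PAD4 (5 nM final) with 2 mM CaCl2 was preincubated with compound 30 min at 25 °C in MOPS buffer pH 7.6, then reacted with 3 mM BAEE for 2 h at 25 °C. After EDTA stop, released ammonia was detected by o-phthalaldehyde/DTT fluorescence (ex 405/em 535 nm); IC50 from four-parameter fit, geometric mean.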

Our source for the IC50 values is patent publication US11976083B2, “Inhibitors of peptidylarginine deiminases” (Gilead Sciences, Inc., priority 2020, dated 2024).

T1 sequence (Q9UM07 2-663): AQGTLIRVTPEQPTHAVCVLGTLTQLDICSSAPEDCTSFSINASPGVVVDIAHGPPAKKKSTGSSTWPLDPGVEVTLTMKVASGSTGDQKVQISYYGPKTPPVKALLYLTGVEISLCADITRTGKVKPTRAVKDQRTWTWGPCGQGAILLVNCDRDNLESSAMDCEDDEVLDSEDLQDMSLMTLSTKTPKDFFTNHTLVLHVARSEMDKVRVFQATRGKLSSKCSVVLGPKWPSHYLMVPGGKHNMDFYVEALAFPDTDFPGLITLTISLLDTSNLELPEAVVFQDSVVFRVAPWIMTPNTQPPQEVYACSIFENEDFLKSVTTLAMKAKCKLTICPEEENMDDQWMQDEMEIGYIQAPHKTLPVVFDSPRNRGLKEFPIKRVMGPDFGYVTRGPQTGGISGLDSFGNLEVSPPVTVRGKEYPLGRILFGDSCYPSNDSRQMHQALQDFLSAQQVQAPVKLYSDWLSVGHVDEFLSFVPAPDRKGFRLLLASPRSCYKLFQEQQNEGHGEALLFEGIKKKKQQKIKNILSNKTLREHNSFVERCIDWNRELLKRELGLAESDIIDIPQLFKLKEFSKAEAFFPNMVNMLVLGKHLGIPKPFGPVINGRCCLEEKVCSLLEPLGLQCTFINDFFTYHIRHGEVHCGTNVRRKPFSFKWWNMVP

Consider `C[C@@H]1[C@H](N)CCCN1C(=O)c1cc(F)c2c(c1)nc(-c1cc3ccc4nc3n1CCCCCc1nc(Cl)ccc1C(=O)N[C@@H]4C)n2C1CC1` [Example 790, (2~{R})-17-[5-[(2~{R},3~{R})-3-amino-2-methyl-piperidine-1-carbonyl]-1-cyclopropyl-7-fluoro-benzimidazol-2-yl]-8-chloro-2-methyl-3,9,16,22-tetrazatetracyclo[14.5.2.0^ {5,10}.0^{19,23}]tricosa-1(21),5(10),6,8,17,19,22-heptaen-4-one], for which the IC50 came to 23 nM.

As for `COc1cc(C(=O)N2[C@H]3CC[C@@H]2[C@H](N)C3)cc2nc(-c3cc4ccc5nc4n3CCCCCCCC(=O)N[C@@H]5C)n(C)c12` [Example 285, (11~{R})-17-[5-[(1~{R},2~{R},4~{S})-2-amino-7-azabicyclo[2.2.1]heptane-7-carbonyl]-7-methoxy-1-methyl-benzimidazol-2-yl]-11-methyl-1,10,19-triazatricyclo[10.5.2.0^{15,18}]nonadeca-12(19),13,15(18),16-tetraen-9-one], the IC50 was found to be 7 nM.

As for `COc1cc(C(=O)N2[C@H]3CC[C@@H]2[C@H](N)C3)cc2nc(-c3cc4ccc5nc4n3CCCCCCNC(=O)CC5C)n(C)c12` (stereo partly drawn) [Example 227, 17-[5-[(1˜{R},2˜{R},4˜{S})-2-amino-7-azabicyclo[2.2.1]heptane-7-carbonyl]-7-methoxy-1-methyl-benzimidazol-2-yl]-11-methyl-1,8,19-triazatricyclo[10.5.2.0^{15,18}]nonadeca-12(19),13,15(18),16-tetraen-9-one], the IC50 stood at 154 nM.

In the case of `COc1cc(C(=O)N[C@H]2CNCC[C@H]2O)cc2nc(-c3cc4ccc5nc4n3CCCCCCC(C)(C)C(=O)N[C@@H]5C)n(C)c12` [Example 295, ~{N}-[(3~{S},4~{R})-4-hydroxy-3-piperidyl]-7-methoxy-1-methyl-2-[(11~{R})-8,8,11-trimethyl-9-oxo-1,10,19-triazatricyclo[10.5.2.0^{15,18}]nonadeca-12(19),13,15(18),16-tetraen-17-yl]benzimidazole-5-carboxamide], the IC50 worked out at 3350 nM.

With `C[C@H]1NC(=O)c2ccccc2CC[C@@H]2C[C@H]2Cn2c(-c3nc4cc(C(=O)N[C@H]5CNCC[C@@H]5F)c(F)cc4n3C3CC3)cc3ccc1nc32` [Example 348, 1-cyclopropyl-6-fluoro-~{N}-[(3~{S},4~{S})-4-fluoro-3-piperidyl]-2-[(3~{R},5~{R},16~{R})-16-methyl-14-oxo-1,15,24-triazapentacyclo[15.5.2.0^{3,5}.0^{8,13}.0^ {20,23}]tetracosa-8,10,12,17(24),18,20(23),21-heptaen-22-yl]benzimidazole-5-carboxamide], the IC50 is 66 nM.

Take `COc1cc(C(=O)N2CC[C@@H](OC)[C@@H](N)C2)cc2nc(-c3cc4ccc5nc4n3CCCCC[C@@H]3C[C@@H]3C(=O)N[C@@H]5C)n(C)c12` [Example 524, (2~{R},5~{S},7~{R})-14-[5-[(3~{S},4~{R})-3-amino-4-methoxy-piperidine-1-carbonyl]-7-methoxy-1-methyl-benzimidazol-2-yl]-2-methyl-3,13,19-triazatetracyclo[11.5.2.0^ {5,7}.0^{16,20}]icosa-1(19),14,16(20),17-tetraen-4-one]: the half-inhibitory concentration (IC50) was determined as 388 nM.

With `COc1cc(C(=O)N2CCC[C@@H](N)C2)cc2nc(-c3cc4ccc5cc4n3CCCCCCC(=O)Nc3ccccc3-5)n(C)c12` [Example 47, 17-[5-[(3~{R})-3-aminopiperidine-1-carbonyl]-7-methoxy-1-methyl-benzimidazol-2-yl]-8,16-diazatetracyclo[14.5.2.0^{2,7}.0^{19,23}] tricosa-1(22),2,4,6,17,19(23),20-heptaen-9-one], the IC50 stood at 458 nM.

For `COc1cc(C(=O)N2C[C@H](N)[C@@H]3CC[C@H]2C3)cc2nc(-c3cc4ccc5nc4n3CCCCCC[C@@H](c3ccccn3)C(=O)N[C@@H]5C)n(C)c12` [Example 891, (8~{S),11~{R})-17-[5-[(1~{S},4~{R},5~{R})-4-amino-2-azabicyclo[3.2.1]octane-2-carbonyl]-7-methoxy-1-methyl-benzimidazol-2-yl]-11-methyl-8-(2-pyridyl)-1,10,19-triazatricyclo[10.5.2.0^ {15,18}]nonadeca-12(19), 13,15(18),16-tetraen-9-one], the IC50 came to 13 nM.

For `C[C@H]1NC(=O)c2nc3ccccc3nc2CCCCCn2c(-c3nc4cc(C(=O)N5C[C@H](N)[C@@H]6CC[C@H]5C6)cc(F)c4n3C3CC3)cc3ccc1nc32` [Example 839, (2~{R})-21-[5-[(1~ {S},4~{R},5~{R})-4-amino-2-azabicyclo[3.2.1]octane-2-carbonyl]-1-cyclopropyl-7-fluoro-benzimidazol-2-yl]-2-methyl-3,6,13,20,26-pentazapentacyclo[18.5.2.0^ {5,14}.0^{7,12}.0^ {23,27}]heptacosa-1(26),5(14), 6,8,10,12,21,23(27),24-nonaen-4-one], the IC50 was determined as 13 nM.

`COc1cc(C(=O)N2C[C@H](N)[C@@H]3CC[C@H]2C3)cc2nc(-c3cc4ccc5nc4n3CCCCCc3nc(Cl)ccc3C(=O)N[C@@H]5C)n(C)c12` [Example 713, (2~{R})-17-[5-[(1~{S}, 4~{R},5~{R})-4-amino-2-azabicyclo[3.2.1]octane-2-carbonyl]-7-methoxy-1-methyl-benzimidazol-2-yl]-8-chloro-2-methyl-3,9,16,22-tetrazatetracyclo [14.5.2.0^{5,10).0^{19,23}] tricosa-1(22),5(10),6,8,17,19(23), 20-heptaen-4-one]: the concentration for half-maximal inhibition (IC50) is 19 nM.

Take `COc1cc(C(=O)N2[C@H]3CC[C@@H]2[C@H](N)C3)cc2nc(-c3cc4ccc5nc4n3CCCCC[C@@H](OC)CC(=O)N[C@@H]5C)c(C)n12` [Example 333, (7~{R},11~{R})-17-[7-[(1~{R},2~{R},4~{S})-2-amino-7-azabicyclo[2.2.1]heptane-7-carbonyl)-5-methoxy-3-methyl-imidazo[1,2-a]pyridin-2-yl]-7-methoxy-11-methyl-1,10,19-triazatricyclo[10.5.2.0^{15,18}]nonadeca-12(19),13,15(18),16-tetraen-9-one]: the IC50 worked out at 33 nM.

Regarding `CO[C@@H]1CCN(C(=O)c2cc(Cl)c3c(c2)nc(-c2cc4ccc5nc4n2CC(F)(F)CCC[C@@H]2C[C@H]2C(=O)N[C@@H]5C)n3C2CC2)C[C@@H]1N` [Example 806, (2~{R},5~{R},7~{R})-14-[5-[(3~{S},4~{R})-3-amino-4-methoxy-piperidine-1-carbonyl]-7-chloro-1-cyclopropyl-benzimidazol-2-yl]-11,11-difluoro-2-methyl-3,13,19-triazatetracyclo[11.5.2.0^ {5,7}.0^{16,20}] icosa-1(18),14,16,19-tetraen-4-one], the half-inhibitory concentration (IC50) came to 42 nM.

With `CO[C@@H]1CCN(C(=O)c2cnc3c(c2)nc(-c2cc4ccc5nc4n2CCCCC[C@@H]2C[C@H]2C(=O)N[C@@H]5C)n3C2CC2)C[C@@H]1N` [Example 574, (2~{R},5~{R},7~{R})-14-[6-[(3~{S},4~{R})-3-amino-4-methoxy-piperidine-1-carbonyl]-3-cyclopropyl-imidazo [4,5-b]pyridin-2-yl]-2-methyl-3,13,19-triazatetracyclo [11.5.2.0^{5,7}.0^{16,20}] icosa-1(19),14,16(20),17-tetraen-4-one], the IC50 was determined as 117 nM.

Regarding `C[C@@H]1[C@H](N)CCCN1C(=O)c1cc(F)c2c(c1)nc(-c1cc3ccc4nc3n1CC(F)(F)CCC[C@]1(F)C[C@H]1C(=O)N[C@@H]4C)n2C1CC1` [Example 701, (2~{R},5~{S},7~{S})-14-[5-[(2~{R},3~{R})-3-amino-2-methyl-piperidine-1-carbonyl]-1-cyclopropyl-7-fluoro-benzimidazol-2-yl]-7,11,11-trifluoro-2-methyl-3,13,19-triazatetracyclo[11.5.2.0^ {5,7}.0^{16,20}]icosa-1(19),14,16(20),17-tetraen-4-one], the IC50 was 5 nM.

For the compound `CCn1c(-c2cc3ccc4nc3n2CCCCC[C@]2(F)C[C@H]2C(=O)N[C@@H]4C)nc2cc(C(=O)N3C[C@H](N)[C@@H]4CC[C@H]3C4)cc(F)c21` [Example 938, (2~{R},5~{S},7~{S})-14-[5-[(1~{S),4~{R},5~{R})-4-amino-2-azabicyclo[3.2.1]octane-2-carbonyl]-1-ethyl-7-fluoro-benzimidazol-2-yl]-7-fluoro-2-methyl-3,13,19-triazatetracyclo[11.5.2.0^ {5,7}.0^{16,20}]icosa-1(19), 14,16(20),17-tetraen-4-one], the 50% inhibitory concentration (IC50) amounted to 28 nM.

As to `CCCO[C@@H]1CCN(C(=O)c2cc(OC)c3c(c2)nc(-c2cc4ccc5nc4n2CCCCCCC(C)(C)C(=O)N[C@@H]5C)n3C)C[C@@H]1N` [Example 103, (11~{R})-17-[5-[(3~{S},4~{R})-3-amino-4-propoxy-piperidine-1-carbonyl]-7-methoxy-1-methyl-benzimidazol-2-yl]-8,8,11-trimethyl-1,10,19-triazatricyclo[10.5.2.0^{15,18}]nonadeca-12(19),13,15(18),16-tetraen-9-one], the 50% inhibitory concentration (IC50) came out at 166 nM.

As to `C[C@H]1NC(=O)[C@@H]2C[C@H]2CCCCCn2c(-c3nc4cc(C(=O)N5C[C@H](N)[C@@H]6CC[C@H]5C6)ccc4n3C3CC3)cc3ccc1nc32` [Example 913, (2~{R},5~{R},7~{R})-14-[5-[(1~{S},4~{R},5~{R})-4-amino-2-azabicyclo[3.2.1]octane-2-carbonyl]-1-cyclopropyl-benzimidazol-2-yl]-2-methyl-3,13,19-triazatetracyclo [11.5.2.0^{5,7}.0^{16,20}] icosa-1(19),14,16(20),17-tetraen-4-one], the IC50 was determined as 22 nM.

As for `COc1cc(C(=O)N(C)[C@H]2CNCC[C@@H]2F)cc2nc(-c3cc4ccc5nc4n3CCCCCCC(C)(C)C(=O)N[C@@H]5C)n(C)c12` [Example 514, ~{N}-[(3~{S},4~{S})-4-fluoro-3-piperidyl]-7-methoxy-~{N},1-dimethyl-2-[(11~{R})-8,8,11-trimethyl-9-oxo-1,10,19-triazatricyclo[10.5.2.0^ {15,18}]nonadeca-12(19),13,15(18),16-tetraen-17-yl]benzimidazole-5-carboxamide], the IC50 came to 371 nM.
